Results as given in patent US20140357512A1, “HISTONE DEACETYLASE (HDAC) BIOMARKERS IN MULTIPLE MYELOMA” (priority 2013, published 2014).

System: human myeloma cell line MM.1S
Test: SILAC acetylated-lysine peptide profiling, HDAC inhibitor vs DMSO (light/heavy ratio)
Format: cell-based
Excerpt: An embodiment of the invention comprises utilizing the SILAC method in order to quantitate changes in protein expression between two or more populations of cells. The SILAC method is a technique based on mass spectrometry that detects differences in protein abundance among samples using non-radioactive isotopic labeling. The SILAC method is known in the art, and described in detail in Ong et al., “Stable Isotope Labeling by Amino Acids in Cell Culture, SILAC, as a Simple and Accurate Approach to Expression Proteomics”, Molecular & Cellular Proteomics, vol. 1, pp. 376-386 (2002), which is incorporated herein by reference in its entirety.
Briefly, the SILAC method involves growing two populations of cells in cell culture. The first population of cells is grown in growth media containing normal amino acids (“normal media”). The second population of cells is grown in media lacking a standard essential amino acid (such as lysine), but is then supplemented with a non-radioactive, isotopically labeled form of that essential amino acid (such as lysine labeled with ^13C atoms, rather than normal ^12C atoms), which is called “heavy media”. When the two populations of cells are each growing in the medium, they incorporate the amino acids into all of their proteins. The growth of cells maintained in the heavy media is no different from that in normal media. All peptides containing the heavy amino acids are heavier than their normal counterparts. The cells from each of the two populations of cells are lysed. The lysates from each of the two cell populations are then combined. The combined cell lysates are then analyzed by mass spectrometry. Pairs of chemically identical peptides of different stable isotope composition can be differentiated in a mass spectrometer due to their difference in mass. The ratio of peak intensities in the mass spectrum for such peptide pairs reflects the abundance ratio for the two proteins.
This example describes SILAC studies that were performed to compare the effects of three different HDAC inhibitors (Compound A, Compound B, and tubastatin A) to a control on a human multiple myeloma cell line. The HDAC inhibitors were also compared amongst themselves to determine differences in their effects.
A human myeloma cell line MM.1S was grown using either ^12C (light) or ^13C (heavy) lysine containing culture medium. The “heavy” cells were treated with DMSO as the control, and the “light” cells were treated with a single HDAC inhibitor at 37° C. for 6 hours. The heavy and light cells were lysed, and the lysates were mixed in 1:1 ratio and digested with the protease trypsin. The acetylated lysine containing peptides (due to the action of the HDAC inhibitor) in the digested peptide pool were captured by a non-specific anti-acetylated lysine antibody cocktail (the antibodies identify both light and heavy acetylated peptides), and subjected to mass spectrometry analysis in order to identify thousands of individual peptides.
Thousands of peptides were identified in pairs (^12C and ^13C) due to their known mass differences. The amino acid sequence and quantitative ratio (Light/Heavy) of a given peptide in two differentially treated cell lysates were then determined and annotated with their possible protein (gene) sources.
As stated above, three HDAC inhibitors (Compound A, Compound B, and Tubastatin A) were used. Thus, the SILAC method was performed three times, with a different HDAC inhibitor compared to a control each time. Accordingly, there are three pairs of quantitative data in the table below, i.e., Compound A:DMSO, Compound B:DMSO, and Tubastatin A:DMSO. A cut-off of 1.30 fold of change (increase or decrease) was then used to determine “changed” or “+” in the table, and any peptides with a fold of change less than 1.3 fold were determined to be “unchanged” or “0” in the table. Those peptides that were not identified were marked as “NA” in the table. […]

O=C(CCCCCCNC(=O)c1cnc(N(c2ccccc2)c2ccccc2)nc1)NO [Compound A, 2-(diphenylamino)-N-(7-(hydroxyamino)-7-oxoheptyl)pyrimidine-5-carboxamide]
L/H ratio of acetylated peptide TVGQLYK(ac)EQLAK (SEQ ID NO: 731, Isoform 1 of Myosin-9 [651], MYH9): 0.75 log 2 | L/H ratio of acetylated peptide AAETCQEPK(ac)EFR (SEQ ID NO: 732, NADH dehydrogenase [ubiquinone] 1 alpha subcomplex assembly factor 4 [91], NDUFAF4): 0.75 log 2 | L/H ratio of acetylated peptide VVLIGDSGVGK(ac)SNLLSR (SEQ ID NO: 733, Ras-related protein Rab-11B [24], RAB11B): 0.76 log 2 | L/H ratio of acetylated peptide SGK(ac)YVLGYK (SEQ ID NO: 734, 60S ribosomal protein L30 [26], RPL30): 0.76 log 2 | L/H ratio of acetylated peptide ILMEHIHK(ac)LK (SEQ ID NO: 735, 60S ribosomal protein L19 [144], RPL19): 0.76 log 2 | L/H ratio of acetylated peptide EK(ac)VFYSLMR (SEQ ID NO: 736, Epoxide hydrolase 1 [288], EPHX1): 0.78 log 2 | L/H ratio of acetylated peptide K(ac)FDQLLAEEK (SEQ ID NO: 737, Isoform 1 of Myosin-9 [1445], MYH9): 0.78 log 2 | L/H ratio of acetylated peptide FVEFDMK(ac)PVCK (SEQ ID NO: 738, Isoform 2 of LIM and senescent cell antigen-like-containing domain protein 2 [326], LIMS2): 0.79 log 2 | L/H ratio of acetylated peptide K(ac)GFITVDGR (SEQ ID NO: 739, Laminin subunit alpha-1 [2808], LAMA1): 0.79 log 2 | L/H ratio of acetylated peptide KAEAQIAAK(ac)NLDK (SEQ ID NO: 740, Aspartate aminotransferase mitochondrial [90], GOT2): 0.80 log 2 | L/H ratio of acetylated peptide DK(ac)QFVAK (SEQ ID NO: 741, Staphylococcal nuclease domain-containing protein 1 [341], SND1): 0.80 log 2 | L/H ratio of acetylated peptide AGACNTVIK(ac)QLMR (SEQ ID NO: 742, Isoform SERCA3B of Sarcoplasmic/endoplasmic reticulum calcium ATPase 3 [476], ATP2A3): 0.82 log 2 | L/H ratio of acetylated peptide KQQAK(ac)FDECVLDK (SEQ ID NO: 743, NADH dehydrogenase [ubiquinone] 1 alpha subcomplex subunit 8 [106], NDUFA8): 0.82 log 2 | L/H ratio of acetylated peptide ALCTGEK(ac)GFGYK (SEQ ID NO: 744, Peptidyl-prolyl cis-trans isomerase F mitochondrial [86], PPIF): 0.82 log 2 | L/H ratio of acetylated peptide IYK(ac)SDGIK (SEQ ID NO: 745, ADP/ATP translocase 2 [166], SLC25A5): 0.83 log 2 | L/H ratio of acetylated peptide DEGGK(ac)AFFK (SEQ ID NO: 746, ADP/ATP translocase 2 [268], SLC25A5): 0.84 log 2 | L/H ratio of acetylated peptide SYLK(ac)EFR (SEQ ID NO: 747, Isoform 1 of Trans-23-enoyl-CoA reductase [291], TECR): 0.85 log 2 | L/H ratio of acetylated peptide VPK(ac)TAENFR (SEQ ID NO: 748, Peptidyl-prolyl cis-trans isomerase D [43], PPID): 0.85 log 2 | L/H ratio of acetylated peptide VNCLDK(ac)FWHK (SEQ ID NO: 749, Isoform 1 of LIM and SH3 domain protein 1 [23], LASP1): 0.85 log 2 | L/H ratio of acetylated peptide KGEDFVK(ac)TLK (SEQ ID NO: 750, Malate dehydrogenase mitochondrial [335], MDH2): 0.85 log 2 | L/H ratio of acetylated peptide EAEFTK(ac)SIAK (SEQ ID NO: 751, Signal peptidase complex subunit 2 [191], LOC653566, SPCS2): 0.86 log 2 | L/H ratio of acetylated peptide SGYYK(ac)VLGK (SEQ ID NO: 752, 60S ribosomal protein L27a [110], RPL27A): 0.86 log 2 | L/H ratio of acetylated peptide YVLGYK(ac)QTLK (SEQ ID NO: 753, 60S ribosomal protein L30 [32], RPL30): 0.87 log 2 | L/H ratio of acetylated peptide FEDK(ac)TVAYTEQK (SEQ ID NO: 754, Protein disulfide-isomerase A3 [218], PDIA3): 0.88 log 2 | L/H ratio of acetylated peptide IVNALK(ac)SQVDK (SEQ ID NO: 755, Ornithine aminotransferase mitochondrial [102], OAT): 0.88 log 2 | L/H ratio of acetylated peptide ILEFFGLK(ac)K (SEQ ID NO: 756, Protein disulfide-isomerase [308], P4HB): 0.89 log 2 | L/H ratio of acetylated peptide LCGQDLNK(ac)TSR (SEQ ID NO: 757, Isoform 1 of UDP-N-acetylglucosamine--dolichyl-phosphate N-acetylglucosaminephospho-, DPAGT1): 0.89 log 2 | L/H ratio of acetylated peptide (SFDK(ac)NLYR (SEQ ID NO: 477), DNA replication licensing factor MCM4 [220], MCM4): −0.55 log 2 | L/H ratio of acetylated peptide LFAK(ac)[…] (SEQ ID NO: 98) (SFPQ [319], log 2 scale, drug vs DMSO): 0.00 | L/H ratio of acetylated peptide […](ac)GK (SEQ ID NO: 99) (SFPQ [330], log 2 scale, drug vs DMSO): 0.00 | L/H ratio of acetylated peptide GFGFIK(ac)LESR (SEQ ID NO: 97) (SFPQ [338], log 2 scale, drug vs DMSO): 0.00 | L/H ratio of acetylated peptide […](ac)MILIGR (SEQ ID NO: 100) (SFXN1 [86], log 2 scale, drug vs DMSO): 0.00 | L/H ratio of acetylated peptide […](ac)DK (SEQ ID NO: 103) (SLC25A5 [92], log 2 scale, drug vs DMSO): 0.00 | L/H ratio of acetylated peptide AFFK(ac)GAWSNVLR (SEQ ID NO: 102) (SLC25A5 [272], log 2 scale, drug vs DMSO): 0.00 | L/H ratio of acetylated peptide […](ac)ANVAK (SEQ ID NO: 101) (SLC25A10 [173], log 2 scale, drug vs DMSO): 0.00 | L/H ratio of acetylated peptide TWEK(ac)LLLAAR (SEQ ID NO: 104) (SNORA6, RPSAP15, SNORA62, RPSA [57], log 2 scale, drug vs DMSO): 0.00
